Target: human Cat S (Homo sapiens (Human), UniProt P25774)
Assay: Cathepsin enzyme inhibition assay (fluorogenic peptide substrate Z-Val-Val-Arg-AMC)
Format: biochemical
Details: enzyme 1 nM, substrate 20 μM, pH 6.5
Experimental: Cathepsin Enzyme Inhibition Assay
Enzyme activity is measured by observing the increase in fluorescence intensity caused by cleavage of a peptide substrate containing a fluorophore whose emission is quenched in the intact peptide.
Assay buffer: 100 mM potassium phosphate pH 6.5, EDTA-Na 5 mM, Triton X-100 0.001%, DTT 5 mM.
Enzymes (all at 1 nM): human and mouse Cathepsin S, Cat K, Cat B, Cat L.
Substrate (20 μM): Z-Val-Val-Arg-AMC, except for Cat K which uses Z-Leu-Arg-AMC (both from Bachem).
AMC=7-Amino-4-Methyl-Coumarin.
Excitation 360 nm, Emission 465 nm.
Enzyme is added to the substance dilutions in 96-well microtitre plates and the reaction is started with substrate. […] IC50 are calculated by standard methods.
Inhibition of human Cat S, mouse Cat S, human Cat K, human Cat B, human Cat L and mouse Cat L have been measured separately.

Chain of human Cat S (P25774 115-331): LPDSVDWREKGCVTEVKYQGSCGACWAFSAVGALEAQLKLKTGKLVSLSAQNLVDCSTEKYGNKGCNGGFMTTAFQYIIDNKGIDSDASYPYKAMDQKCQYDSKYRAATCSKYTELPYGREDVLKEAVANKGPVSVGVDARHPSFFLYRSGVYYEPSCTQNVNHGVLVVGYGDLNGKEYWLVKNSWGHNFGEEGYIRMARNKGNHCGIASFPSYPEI

Row | SMILES | IC50
1 | N#CC1(NC(=O)[C@@H]2C[C@@H](S(=O)(=O)c3ccc(-c4cc[n+]([O-])c(Cl)c4)cc3C(F)(F)F)CN2C(=O)C2(C(F)(F)F)CC2)CC1 [Example 1, (2S,4R)-4-[4-(2-Chloro-1-oxy-pyridin-4-yl)-2-trifluoromethyl-benzenesulfonyl]-1-(1-trifluoromethyl-cyclopropanecarbonyl)-pyrrolidine-2-carboxylic acid (1-cyano-cyclopropyl)-amide] | 0.968 nM
2 | Cc1cc(-c2ccc(S(=O)(=O)[C@@H]3C[C@@H](C(=O)NC4(C#N)CC4)N(C(=O)C4(C(F)(F)F)CC4)C3)c(C(F)(F)F)c2)cc[n+]1[O-] [Example 2, (2S,4R)-4-[4-(2-Methyl-1-oxy-pyridin-4-yl)-2-trifluoromethyl-benzenesulfonyl]-1-(1-trifluoromethyl-cyclopropanecarbonyl)-pyrrolidine-2-carboxylic acid (1-cyano-cyclopropyl)-amide] | 0.77 nM
3 | Cn1nc(C(F)(F)F)cc1-c1ccc(S(=O)(=O)[C@@H]2C[C@@H](C(=O)NC3(C#N)CC3)N(C(=O)C3(C(F)(F)F)CC3)C2)c(C(F)(F)F)c1 [Example 3, (2S,4R)-4-[4-(2-Methyl-5-trifluoromethyl-2Hpyrazol-3-yl)-2-trifluoromethyl-benzenesulfonyl]-1-(1-trifluoromethyl-cyclopropanecarbonyl)-pyrrolidine-2-carboxylic acid (1-cyano-cyclopropyl)-amide] | 1.02 nM
4 | N#CC1(NC(=O)[C@@H]2C[C@@H](S(=O)(=O)c3ccc(-c4ccccc4OC(F)(F)F)cc3C(F)(F)F)CN2C(=O)C2(C(F)(F)F)CC2)CC1 [Example 4, (2S,4R)-4-(2′-Trifluoromethoxy-3-trifluoromethyl-biphenyl-4-sulfonyl)-1-(1-trifluoromethyl-cyclopropanecarbonyl)-pyrrolidine-2-carboxylic acid (1-cyano-cyclopropyl)-amide] | 0.978 nM
5 | CCOc1ccccc1-c1ccc(S(=O)(=O)[C@@H]2C[C@@H](C(=O)NC3(C#N)CC3)N(C(=O)C3(C(F)(F)F)CC3)C2)c(C(F)(F)F)c1 [Example 5, (2S,4R)-4-(2′-Ethoxy-3-trifluoromethyl-biphenyl-4-sulfonyl)-1-(1-trifluoromethyl-cyclopropanecarbonyl)-pyrrolidine-2-carboxylic acid (1-cyano-cyclopropyl)-amide] | 0.836 nM
6 | N#CC1(NC(=O)[C@@H]2C[C@@H](S(=O)(=O)c3ccc(-c4ccccc4OC4CC4)cc3C(F)(F)F)CN2C(=O)C2(C(F)(F)F)CC2)CC1 [Example 6, (2S,4R)-4-(2′-Cyclopropoxy-3-trifluoromethyl-biphenyl-4-sulfonyl)-1-(1-trifluoromethyl-cyclopropanecarbonyl)-pyrrolidine-2-carboxylic acid (1-cyano-cyclopropyl)-amide] | 1.06 nM
7 | N#CC1(NC(=O)[C@@H]2C[C@@H](S(=O)(=O)c3ccc(OC4CCC4)cc3C(F)(F)F)CN2C(=O)C2(C(F)(F)F)CC2)CC1 [Example 7, (2S,4R)-4-(4-Cyclobutoxy-2-trifluoromethyl-benzenesulfonyl)-1-(1-trifluoromethyl-cyclopropanecarbonyl)-pyrrolidine-2-carboxylic acid (1-cyano-cyclopropyl)-amide] | 0.91 nM
8 | Cc1nnn(-c2ccc(S(=O)(=O)[C@@H]3C[C@@H](C(=O)NC4(C#N)CC4)N(C(=O)C4(C(F)(F)F)CC4)C3)c(Cl)c2)n1 [Example 8, (2S,4R)-4-(2-chloro-4-(5-methyl-2H-tetrazol-2-yl)phenylsulfonyl)-N-(1-cyanocyclopropyl)-1-(1-(trifluoromethyl)cyclopropanecarbonyl)pyrrolidine-2-carboxamide] | 0.533 nM
9 | Cc1nnnn1-c1ccc(S(=O)(=O)[C@@H]2C[C@@H](C(=O)NC3(C#N)CC3)N(C(=O)C3(C(F)(F)F)CC3)C2)c(Cl)c1 [Example 9, (2S,4R)-4-(2-chloro-4-(5-methyl-1H-tetrazol-1-yl)phenylsulfonyl)-N-(1-cyanocyclopropyl)-1-(1-(trifluoromethyl)cyclopropanecarbonyl)pyrrolidine-2-carboxamide] | 0.683 nM
10 | N#CC1(NC(=O)[C@@H]2C[C@@H](S(=O)(=O)c3ccc(-n4cncn4)cc3Cl)CN2C(=O)C2(C(F)(F)F)CC2)CC1 [Example 10, (2S,4R)-4-(2-chloro-4-(1H-1,2,4-triazol-1-yl)phenylsulfonyl)-N-(1-cyanocyclopropyl)-1-(1-(trifluoromethyl)cyclopropanecarbonyl)pyrrolidine-2-carboxamide] | 0.686 nM
11 | N#CC1(NC(=O)[C@@H]2C[C@@H](S(=O)(=O)c3ccc(-n4cncn4)cc3-n3cncn3)CN2C(=O)C2(C(F)(F)F)CC2)CC1 [Example 11, (2S,4R)—N-(1-cyanocyclopropyl)-4-(2,4-di(1H-1,2,4-triazol-1-yl)phenylsulfonyl)-1-(1-(trifluoromethyl)cyclopropanecarbonyl)pyrrolidine-2-carboxamide] | 12.6 nM
12 | N#CC1(NC(=O)[C@@H]2C[C@@H](S(=O)(=O)c3ccc(-n4nccn4)cc3Cl)CN2C(=O)C2(C(F)(F)F)CC2)CC1 [Example 12, (2S,4R)-4-(2-chloro-4-(2H-1,2,3-triazol-2-yl)phenylsulfonyl)-N-(1-cyanocyclopropyl)-1-(1-(trifluoromethyl)cyclopropanecarbonyl)pyrrolidine-2-carboxamide] | 0.56 nM
13 | N#CC1(NC(=O)[C@@H]2C[C@@H](S(=O)(=O)c3ccc(-n4ccnn4)cc3Cl)CN2C(=O)C2(C(F)(F)F)CC2)CC1 [Example 13, (2S,4R)-4-(2-chloro-4-(1H-1,2,3-triazol-1-yl)phenylsulfonyl)-N-(1-cyanocyclopropyl)-1-(1-(trifluoromethyl)cyclopropanecarbonyl)pyrrolidine-2-carboxamide] | 0.568 nM
14 | Cc1ncn(-c2ccc(S(=O)(=O)[C@@H]3C[C@@H](C(=O)NC4(C#N)CC4)N(C(=O)C4(C(F)(F)F)CC4)C3)c(Cl)c2)n1 [Example 14, (2S,4R)-4-(2-chloro-4-(3-methyl-1H-1,2,4-triazol-1-yl)phenylsulfonyl)-N-(1-cyanocyclopropyl)-1-(1-(trifluoromethyl)cyclopropanecarbonyl)pyrrolidine-2-carboxamide] | 0.529 nM
15 | Cc1nc(C)n(-c2ccc(S(=O)(=O)[C@@H]3C[C@@H](C(=O)NC4(C#N)CC4)N(C(=O)C4(C(F)(F)F)CC4)C3)c(Cl)c2)n1 [Example 15, (2S,4R)-4-(2-chloro-4-(3,5-dimethyl-1H-1,2,4-triazol-1-yl)phenylsulfonyl)-N-(1-cyanocyclopropyl)-1-(1-(trifluoromethyl)cyclopropanecarbonyl)pyrrolidine-2-carboxamide] | 0.61 nM
16 | N#CC1(NC(=O)[C@@H]2C[C@@H](S(=O)(=O)c3ccc(-n4cnc(Cl)n4)cc3Cl)CN2C(=O)C2(C(F)(F)F)CC2)CC1 [Example 16, (2S,4R)-4-(2-chloro-4-(3-chloro-1H-1,2,4-triazol-1-yl)phenylsulfonyl)-N-(1-cyanocyclopropyl)-1-(1-(trifluoromethyl)cyclopropanecarbonyl)pyrrolidine-2-carboxamide] | 0.563 nM
17 | N#CC1(NC(=O)[C@@H]2C[C@@H](S(=O)(=O)c3ccc(-n4ccc(C(F)(F)F)n4)cc3Cl)CN2C(=O)C2(C(F)(F)F)CC2)CC1 [Example 17, (2S,4R)-4-(2-chloro-4-(3-(trifluoromethyl)-1H-pyrazol-1-yl)phenylsulfonyl)-N-(1-cyanocyclopropyl)-1-(1-(trifluoromethyl)cyclopropanecarbonyl)pyrrolidine-2-carboxamide] | 0.704 nM
18 | Cc1cc(C(F)(F)F)nn1-c1ccc(S(=O)(=O)[C@@H]2C[C@@H](C(=O)NC3(C#N)CC3)N(C(=O)C3(C(F)(F)F)CC3)C2)c(Cl)c1 [Example 18, (2S,4R)-4-(2-chloro-4-(5-methyl-3-(trifluoromethyl)-1H-pyrazol-1-yl)phenylsulfonyl)-N-(1-cyanocyclopropyl)-1-(1-(trifluoromethyl)cyclopropanecarbonyl)pyrrolidine-2-carboxamide] | 0.98 nM
19 | Cc1cc(-n2ccc(C(F)(F)F)n2)ccc1S(=O)(=O)[C@@H]1C[C@@H](C(=O)NC2(C#N)CC2)N(C(=O)C2(C(F)(F)F)CC2)C1 [Example 19, (2S,4R)—N-(1-cyanocyclopropyl)-4-(2-methyl-4-(3-(trifluoromethyl)-1H-pyrazol-1-yl)phenylsulfonyl)-1-(1-(trifluoromethyl)cyclopropanecarbonyl)pyrrolidine-2-carboxamide] | 1.43 nM
20 | N#CC1(NC(=O)[C@@H]2C[C@@H](S(=O)(=O)c3ccc(-c4ccccc4OC(F)(F)F)cc3)CN2C(=O)C2(C(F)(F)F)CC2)CC1 [Example 20, (2S,4R)—N-(1-cyanocyclopropyl)-4-(2′-(trifluoromethoxy)biphenyl-4-ylsulfonyl)-1-(1-(trifluoromethyl)cyclopropanecarbonyl)pyrrolidine-2-carboxamide] | 5.72 nM
21 | N#CC1(NC(=O)[C@@H]2C[C@@H](S(=O)(=O)c3ccc(OC4CCC4)cc3Cl)CN2C(=O)C2(C(F)(F)F)CC2)CC1 [Example 21, (2S,4R)-4-(2-chloro-4-cyclobutoxyphenylsulfonyl)-N-(1-cyanocyclopropyl)-1-(1-(trifluoromethyl)cyclopropanecarbonyl)pyrrolidine-2-carboxamide] | 1.07 nM
22 | Cc1cc(-c2ccccc2OC(F)(F)F)ccc1S(=O)(=O)[C@@H]1C[C@@H](C(=O)NC2(C#N)CC2)N(C(=O)C2(C(F)(F)F)CC2)C1 [Example 22, (2S,4R)—N-(1-cyanocyclopropyl)-4-(3-methyl-2′-(trifluoromethoxy)biphenyl-4-ylsulfonyl)-1-(1-(trifluoromethyl)cyclopropanecarbonyl)pyrrolidine-2-carboxamide] | 1.14 nM

Source: US10689339B2, “Pyrrolidine derivatives” (Hoffmann-La Roche Inc., priority 2016, dated 2020)
